From patent US8367801B2, “Proteinaceous compounds” (Endocrine Pharmaceuticals Limited, priority 2008, dated 2013)
Ends that are not written are not given here.

How the values were obtained:
[1] = test system: human dental pulp cells; assay: Dental pulp cell proliferation (Cyquant); assay type: cell-based; settings: for anti-proliferative activity: 5 μM in the cell medium, seeding 5.0×10^3 cells/ml
[2] = test system: PC3 prostate cancer cells; assay: Tumour cell viability, Alamar Blue; assay type: cell-based; settings: 48 hours; mean n = 3, SEMs < 5%; camptothecin at 3 μmol
Method: (§1) The effects of micrin on viability of tumour cells were determined using MCF7 breast cancer cells and PC3 prostate cancer cells. Cells were plated out to provide 2×10^4 cells in 2 cm^2 wells in Dulbecco's modified Eagles medium (DMEM) containing 10% foetal calf serum (FCS), antibiotics and a stabilised substitute for glutamine (Glutamax, Invitrogen UK). The cells were allowed to attach overnight. The medium was removed and the cells were washed several times with fresh medium, and then treated with test or control samples diluted in medium.
(§2) Test and control samples were produced according to an ion exchange method using 120 ml sheep ovarian follicular fluid as the starting material. Follicular fluid obtained by aspiration of abattoir-derived sheep ovaries was centrifuged at +4° C. and 2000 g for 10 minutes, then spun through Amicon Centriprep-30 cartridges at 1800 g to give a nominal 0-30 kD fraction. This fraction was spun through Amicon Centriprep-3 cartridges to give a nominal 3-30 kD sub-fraction. […]
(§3) Camptothecin, an inducer of apoptosis, was used as a positive control at 3 μmol. After 48 hours the medium was changed for fresh medium and the number of remaining viable cells was quantitated using Alamar Blue. The number of viable cells in the micrin and camptothecin samples were expressed as a percentage of the number of viable cells in the micrin-free control samples. […]

[3] = test system: MCF7 breast cancer cells; assay: Tumour cell viability, Alamar Blue; assay type: cell-based, human; settings: 48 hours; mean n = 3, SEMs < 5%; camptothecin at 3 μmol
Method: as §1, §2, §3

[4] = test system: human umbilical vascular endothelial cells (HUVECs); assay: AngioKit angiogenesis assay, venule length; assay type: cell-based; settings: FIG. 6; suramin 20 μM; micrin sample T2
Method: Micrin and micrin free control samples were produced using the method described in Example 7.a with 120 ml sheep follicular fluid as the source material. These were diluted in AngioKit medium and stored at 4° C. for the duration of the assay. Samples were tested as follows: • 1) untreated control—medium alone • 2) positive control—medium containing 2 ng/ml VEGF • 3) negative control—medium containing 20 μM suramin (a potent inhibitor of angiogenesis) • 4) micrin-free control • 5) micrin test material
Comparison of venule length was conducted using the ‘Angiosys’ image analysis system developed specifically for the analysis of images produced using the AngioKit. Four images were taken from predetermined positions in the well containing each specimen. The results obtained with micrin are marked T2, those with micrin-free control T1.

[5] = test system: human bone marrow stem cells; assay: Human bone marrow stem cell proliferation in vitro; assay type: cell-based; settings: 1 μM in the medium, 24 h
Method: (§4) Micrin activity has been determined by means of a suitable in vitro assay, for example the breast cancer cell viability assay described above in Section 4 with reference to FIG. 4. A useful assay in support of molecular optimisation involves adult rat bone marrow stem cells in culture, with α-MEMS as cell medium and manual assessments of cell numbers and morphology using time-lapse video photography over 24 h. In one study, untreated control cells increased in number by 50%. An increase of just under 20% was also seen with the 14 mer peptide SEQ ID NO: 9, administered at 10 μg/ml of medium.
To investigate the stop growing aspect of the hypothesized micrin puberty signal, the proline-containing 6 mers have been administered to human bone marrow stem cells in an in vitro assay (see 6a), at a concentration in the medium of 1 μM.

[6] = test system: Caenorhabditis elegans; assay type: in vivo; settings: for effect on lifespan / increase in fecundity (number of offspring): 1 μM in aqueous medium each day; for increase in fecundity (number of offspring): over lifespan
From the text: (For methodology see Davies, K. G & Hart, J. E, Nematology, 10, 103-112, 2008).
The first six amino acids of the micrin peptide fragment of SEQ ID NO: 9 are MKPLTG (SEQ ID NO: 26). These have been synthesized as a 6 mer. […] Thus the fecundity-enhancing effect is retained even if 8 of the 14 amino acids are removed, potentially identifying an active motif. To optimise this 6 mer further, amino acid substitutions have been made, while retaining the proline at position 3.

[7] = test system: Caenorhabditis elegans; settings: Davies & Hart, Nematology 2008; cited from earlier work
[8] = test system: adult rat bone marrow stem cells; assay: Adult rat bone marrow stem cells in culture, cell numbers by time-lapse video over 24 h; assay type: cell-based
Method: Polyclonal antibodies were raised in the same manner using goats instead of rabbits, with Peptide 2 conjugated to KLH. The primary immunisation was followed by 8 boosters at monthly intervals, using standard techniques for the raising of polyclonal antibodies. Titre was established via immunohistochemistry, using rat and ovine median eminence tissue and the ability to block antibody with Peptide 1 was determined on histological sections. Specificity was tested using a range of hypothalamic peptides. […] 9, which consists of KVKEFNNI (SEQ ID NO. 21). Purification of the antibody using the peptide SEQ ID NO: 9 immobilised on a column enriches for antibody to the C-terminal epitope. The goat antibody has been used in connection with an assay based on adult rat bone marrow stem cells in culture, with α-MEMS as cell medium and manual assessments of cell numbers and morphology using time-lapse video photography over 24 h.
as §4

[9] = test system: ovine pituitary cells; assay: LH secretion by pituitary cells in vitro; assay type: cell-based; settings: 24 h, 0.1-10 μg/L, dose dependent, vs scrambled peptide, data not shown
Method: Both effects are dependent on dose across the range used, 0.1-10 μg/L, and are statistically significant. Comparison was with a control peptide having the same amino acids in a randomly scrambled sequence (data not shown)

[10] = test system: compensatory renal growth; settings: procedures as in 7c; Haylor et al 2009; cited from earlier work
[11] = test system: ovine pituitary cells; assay: Prolactin production by pituitary cells in vitro, RIA; assay type: cell-based
Method: Adult ewe pituitaries were collected into phosphate buffered saline (PBS) on ice. The external dura and neurohypophyseal tissue were removed and the remaining tissue was sliced thinly using tweezers and scalpel, and minced using crossed scalpel blades (<1 mm pieces). The mince was washed in 0.1% bovine serum albumen (BSA)/PBS. The tissue was allowed to settle and the liquid aspirated. The washing, settling and aspiration were repeated.
A standard cell dispersion was conducted by adding the tissue to a filtered solution of collagenase in BSA/PBS (0.02-0.03 g in 10 ml) plus Dnase, hyaluronidase, pancreatin and trypsin inhibitor and incubating in a shaking waterbath at 37° C. for 25 minutes. The resultant suspension was titurated with a pipette and returned to the shaking waterbath for 5 minutes. The suspension was titurated again and filtered through a mesh, washing with BSA/PBS. The suspension was added to a 50 ml centrifuge tube and spun at 1500 rpm for 5 minutes. The supernatant was removed and the cell pellet resuspended in 50 ml BSA/PBS.
A sample of the cell suspension (50 μl) was mixed 1:1 with trypan blue in a microcentrifuge tube and viable cells were counted on a haemocytometer, to give viable cell concentration.
The cell suspension was recentrifuged and resuspended in 3-5 ml of M199. […]

[12] = test system: MCF 7 human breast cancer cells; assay: IGF1-stimulated cell growth, Coulter counter; assay type: cell-based; settings: IGF1 50 ng/ml, 72 hours
Method: Experiments were conducted to assess the effects of a range of doses of the micrin peptide fragment with 20 amino acids (SEQ ID NO: 19) on the IGF1-stimulated growth of MCF 7 human breast cancer cells. Cells were plated at 2×10^4 per well in 2 cm^2 wells in Dulbecco's Modified Eagle's Medium containing 10% foetal calf serum, antibiotics and a stabilised substitute for glutamine (Glutamax, InVitrogen, UK). After an overnight culture period, the cells were washed with fresh medium and this was replaced with medium containing IGF1 (50 ng/ml) in the presence and absence of a range of concentrations (between 0.04 and 4000 nmol) of the peptide fragment in triplicate wells, and compared to triplicate wells containing medium only (with no supplementary IGF1) as controls. The cells were incubated for 72 hours in a humidified atmosphere at 37° C. under 5% carbon dioxide/95% air. The medium was discarded, and the cell layer washed with buffered saline before being incubated with trypsin/EDTA to dislodge the cells. The cell suspension was diluted with medium to stop the tryptic action and then transferred to tubes and subjected to centrifugation. The pellet was resuspended in Isoton and samples counted with a Coulter counter.

Compound: 1KPLTGKVKEFNNI [SEQ ID NO:1, 14 mer wherein 1 is S, D or M]
- anti-proliferative activity [1]: more so

Compound: CC[C@@]1(O)C(=O)OCc2c1cc1n(c2=O)Cc2cc3ccccc3nc2-1 [Camptothecin]
- Viability (% micrin-free control) PC3 (prostate cancer) [2]: 43.9 % micrin-free control
- Viability (% micrin-free control) MCF-7 (breast cancer) [3]: 56.2 % micrin-free control

Compound: Cc1ccc(C(=O)Nc2ccc(S(=O)(=O)O)c3cc(S(=O)(=O)O)cc(S(=O)(=O)O)c23)cc1NC(=O)c1cccc(NC(=O)Nc2cccc(C(=O)Nc3cc(C(=O)Nc4ccc(S(=O)(=O)O)c5cc(S(=O)(=O)O)cc(S(=O)(=O)O)c45)ccc3C)c2)c1 [Suramin, suramin]
- HUVEC venule length [4]: statistically significant decrease in HUVEC venule length

Compound: IEPVFT
- ascending order of anti-proliferative activity [5]: IEPVFT (SEQ ID NO: 30)<MKPLTG (SEQ ID NO. 26)<LEPVMT (SEQ ID NO: 31)<LQPAHV (SEQ ID NO: 27)
- effect on lifespan [6]: without having a significant effect on lifespan
- increase in fecundity (number of offspring) [6]: 79%

Compound: KLKMNGKN (SEQ ID NO: 29) to the N-terminus of IEPVFT: IEPVFT with KLKMNGKN added to its N-terminus (KLKMNGKNIEPVFT)
- effect on fecundity [7]: anti-fecundity agent

Compound: KVKEFNNI
- anti-proliferative activity [1]: most anti-proliferative of all
- reduction of cell numbers ([1]; 5 μM, over 7 days): about 17%

Compound: LEPVMT
- ascending order of anti-proliferative activity [5]: IEPVFT (SEQ ID NO: 30)<MKPLTG (SEQ ID NO. 26)<LEPVMT (SEQ ID NO: 31)<LQPAHV (SEQ ID NO: 27)

Compound: LQPAHV
- ascending order of anti-proliferative activity [5]: IEPVFT (SEQ ID NO: 30)<MKPLTG (SEQ ID NO. 26)<LEPVMT (SEQ ID NO: 31)<LQPAHV (SEQ ID NO: 27)
- reduction of cell numbers [5]: about 32%
- effect on lifespan [6]: significantly to prolong lifespan
- increase in fecundity (number of offspring) [6]: 71%

Compound: MKPLTG
- anti-proliferative activity [1]: minimally anti-proliferative
- ascending order of anti-proliferative activity [5]: IEPVFT (SEQ ID NO: 30)<MKPLTG (SEQ ID NO. 26)<LEPVMT (SEQ ID NO: 31)<LQPAHV (SEQ ID NO: 27)
- effect on lifespan [6]: without altering lifespan
- increase in fecundity (number of offspring) [6]: 50%

Compound: MKPLTGKVKEFNNI [SEQ ID NO: 9]
- increase in cell number ([8]; 10 μg/ml of medium, 24 h, untreated control cells increased by 50%): under 20%
- effect of co-administration on the antibody's reduction of the negative influence ([8]; with goat antibody and rat hypothalamus extract): reversed by co-administration
- LH production ([9]; cells provided with GnRH, GHRH and TRH): reduction in LH production
- LH secretion ([9]; hypothalamic regulators omitted): increase the secretion of LH
- effect on compensatory renal growth [10]: inhibits compensatory renal growth
- effect on lifespan [6]: increased by about a fifth
- increase in fecundity (number of offspring) [6]: > 40%
- prolactin level in medium ([11]; Experiment 1: 1 ng/well, 24 hours, n=4, control 92.2±13.9): 67.1 ± 12.6 ng/mL
- prolactin level in medium ([11]; Experiment 2: 1 μg/ml, 2 hours, control 8.30±1.16, p<0.05): 5.18 ± 1.52 ng/mL

Compound: MKPLTGKVKEFNNIKGFGVI [SEQ ID NO: 19]
- reduction in cell numbers ([8]; 24 h, due to apoptosis): about 80%
- cell count compared to IGF1 alone ([12]; 0.04 nmol peptide): noticably decreases the cell count
- cell count compared to controls ([12]; 40 nmol peptide): reduces the cell count to below that in the controls
- effect on IGF1-stimulated cell growth ([12]; 0.04-4000 nmol, FIG. 7): suppresses the effect of IGF1 in a dose-dependent manner

Compound: fluorescently tagged version of the micrin peptide fragment: fluorescently tagged version of the micrin peptide fragment SEQ ID NO: 9 (MKPLTGKVKEFNNI; also: fluorescent tag, position not given here)
- tissue accumulation ([6]; in vivo): accumulate preferentially in genital tissue
